# Experimental data reported in US20230145729A1, “INDOLE DITERPENE BIOSYNTHESIS” (priority 2020, published 2023).
# Legend:
# [1] = system: Porina (Wiseana copularis) larvae; assay: Porina bioassay of purified epoxy-janthitrems (Example 6); type: in vivo; conditions: for inhibition of feeding at the highest concentration: highest concentration (10 μg/g wet weight); for Mortality of larvae: data not shown; for average diet consumption with increasing concentration: 1, 2.5, 10 μg/g wet weight, 21 days
# Protocol: The porina bioassay was carried out as described in Example 4, with the following variations:
# 15 replicates were used per treatment;
# the age of the larvae at the start of the experiment was 10 weeks;
# diet was made weekly and replaced after 4 days within each week;
# the average weight of diet consumed by the larvae, larval weight gain/loss (data not shown), and larval mortality (data not shown) was determined;
# three concentrations of purified epoxy-janthitrems were used (1, 2.5, 10 μg/g wet weight) instead of four; and
# an average daily diet consumption (mg/larva) across the 21 days of the trial was determined.
# [2] = system: mice (Swiss, female); assay: Mouse tremor bioassay of purified epoxy-janthitrems (Example 7); type: in vivo; conditions: ip; for peak tremor score (comparison among epoxy-janthitrems): EJ I 13.5, EJ III 17.2, EJ triol 16.2 mg/kg
# Protocol: Epoxy-janthitrem I, Epoxy-janthitrem II, Epoxy-janthitrem III, Epoxy-janthitrem IV, and Epoxy-janthitriol, were administered by intraperitoneal injection as DMSO/water solutions (9:1, 50 μL) into mice (Swiss, female, weight 25+3g). Control mice were injected with the solvent alone (data not shown). Groups of four mice were used for each treatment group. All animal manipulations were approved, and tremor score was calculated, as described above in Example 5.
# The dosage rates were informed by the experiment described in Example 5 above, with dose rates as follows: epoxy-janthitrem I (EJ I, 13.5 mg/kg), epoxy-janthitrem II (EJ II, 14.2 mg/kg), epoxy-janthitrem III (EJ III, 17.2 mg/kg), epoxy-janthitrem IV (EJ IV, 16.5 mg/kg), epoxy-janthitriol (EJ triol, 16.2 mg/kg). Tremors were measured regularly until the mice had completely recovered.
# [3] = system: Porina (Wiseana cervinata) larvae; assay: Porina bioassay of purified epoxy-janthitrem I in semi-synthetic diet (Example 4); type: in vivo
# Protocol: Six week-old porina (W. cervinata) larvae reared from eggs (Popay, 2001) were starved overnight and then weighed individually. Larvae were assigned to replicates so that all larvae within a replicate were of a similar weight but randomised amongst treatments. The 20 replicate larvae per treatment were each placed in specimen containers (75 mL) half filled with commercially available fine bark chips.
# (§1) An agar-based semi-synthetic diet (Popay, 2001) without antimicrobials was prepared and epoxy-janthitrem I dissolved in 100 μL DMSO was added to 10 g of diet. Four concentrations of epoxy-janthitrem I were prepared (1, 2.5, 5, 10 μg/g wet weight) along with a DMSO control. Discs of diet (7 mm diam.) were taken and placed on top of the bark and the lids were replaced. The experiment was kept in the dark at 15° C. After 24 h, each diet was visually scored for feeding on a scale of 0-10 where 0=no feeding and 10=all diet consumed. The amount of webbing present was also scored on a scale of 0-5. The diet disc was replaced daily with fresh diet for 7 days. Each time diet was replaced, samples of the diet that the porina had fed on were taken as well as a sample of the fresh diet to analyse for epoxy-janthitrem I. Porina were reweighed at the completion of the trial.
# The feeding score data were normalised by square root transformation before a repeated measures analysis was carried out using REML with treatment and date as factors. The daily webbing score and weight change of larvae over 7 days were analysed using ANOVA, blocked by replicate, to make pairwise comparisons for each concentration with the solvent control at each date.
# [4] = Analysis of porina diets for epoxy-janthitrem I (stability in diet); type: physicochemical; conditions: average
# Protocol: as §1
# [5] = system: mice (Swiss, female); assay: Mouse tremor bioassay (Example 5); type: in vivo
# Protocol: Epoxy-janthitrem I, lolitrem B, and the related indole-diterpene, paxilline were administered by intraperitoneal injection as DMSO/water solutions (9:1, 50 μL) into mice (Swiss, female, weight 25+3 g). Control mice were injected with the solvent alone. Dose rates which induce an acceptable maximum tremor response are well established for lolitrem B (2 mg/kg; Gallagher and Hawkes, 1986) and paxilline (6 mg/kg; Miles, et al., 1992).
# Groups of four mice were used for each treatment group. All animal manipulations were approved by the
# AgResearch Ruakura (Hamilton) Animal Ethics Committee established under the Animal Protection (code of ethical conduct) Regulations Act, 1987 (New Zealand). Tremor score was rated 1-5 on the basis of a visual rating scale using well established protocols (Gallagher and Hawkes, 1985; Gallagher and Hawkes, 1986). Tremors were measured regularly until the mice had completely recovered.
smiles,measurement,setting,value
CC(C)=CCOC(C)(C)C1OC2CC[C@]3(C)[C@@]4(C)c5[nH]c6cc7c(cc6c5CC4CC[C@@]3(O)C23O[C@H]3[C@@H]1O)CC1C7=CC(C)(C)OC1(C)C (stereo partly drawn) [epoxy-janthitrem III],inhibition of feeding at the highest concentration,[1],little inhibition of feeding
same,peak tremor score (comparison among epoxy-janthitrems),[2],lowest peak tremor scores
CC(C)=CC1O[C@@H]2C(OC3CC[C@]4(C)[C@@]5(C)c6[nH]c7cc8c(cc7c6CC5CC[C@@]4(O)C34O[C@@H]24)CC2C8=CC(C)(C)OC2(C)C)C(C)(C)O1 (stereo partly drawn) [epoxy-janthitrem II],Weight change of larvae,[1]; 2.5 μg/g,net weigt loss
same,Mortality of larvae,[1]; 2.5 μg/g,high
same,Mortality of larvae,[1]; 10 μg/g,high
same,average diet consumption with increasing concentration,[1],decreased with increasing epoxy-janthitrem concentration
same,time of peak tremorgenicity,"[2]; EJ I 13.5, EJ II 14.2, EJ III 17.2, EJ IV 16.5, EJ triol 16.2 mg/kg",9 hours post administration
CC(=O)O[C@@H]1C(C(C)(C)OCC=C(C)C)OC2CC[C@]3(C)[C@@]4(C)c5[nH]c6cc7c(cc6c5CC4CC[C@@]3(O)C23O[C@@H]13)CC1C7=CC(C)(C)OC1(C)C (stereo partly drawn) [epoxy-janthitrem IV],inhibition of feeding at the highest concentration,[1],little inhibition of feeding
CC(=O)O[C@@H]1C(C(C)(C)O)OC2CC[C@]3(C)[C@@]4(C)c5[nH]c6cc7c(cc6c5CC4CC[C@@]3(O)C23O[C@@H]13)CC1C7=CC(C)(C)OC1(C)C (stereo partly drawn) [epoxy-janthitrem I],Weight change of larvae,"[3]; 1-10 ppm in diet, 7 days",continued to decline with increasing concentration
same,% gain in weight,"[3]; 1 ppm in diet, P<0.05 vs solvent control",51.1%
same,feeding score vs solvent control,"[3]; 1 ppm in diet, apart from the first day",did not differ significantly from the solvent control
same,feeding score vs solvent control,[3]; 2.5 ppm in diet,consistent reduction in feeding score for the first 6 days
same,feeding score vs solvent control,"[3]; 5 ppm in diet, entire period of the bioassay",feeding was strongly inhibited
same,feeding score vs solvent control,"[3]; 10 ppm in diet, entire period of the bioassay",feeding was strongly inhibited
same,Weight gain of larvae relative to the solvent control,[3]; all concentrations except 1 ppm,significantly reduced
same,in planta concentration that will reliably reduce larval feeding,[3]; extrapolated from dry weight of diet (about ten times wet weight concentrations),≥ 25 ppm
same,Survival of larvae during the experiment,"[3]; treatments containing epoxy-janthitrem I (1, 2.5, 5, 10 μg/g wet weight), 7 days",100%
same,concentration of epoxy-janthitrem I in diet relative to expected,[4]; analysed at time zero,98%
same,"epoxy-janthitrem I remaining in diet, % of the starting concentration",[4]; diets after 24 h,81%
same,tremor response,[5]; 8 mg/kg intraperitoneal,only a low tremor response
same,Weight change of larvae,[1]; 2.5 μg/g,net weigt loss
same,Mortality of larvae,[1]; 2.5 μg/g,high
same,Mortality of larvae,[1]; 10 μg/g,high
same,average diet consumption with increasing concentration,[1],decreased with increasing epoxy-janthitrem concentration
same,effect on consumption at the lowest dose,[1]; lowest dose (1 μg/g wet weight),substantial inhibitory effect
same,peak tremor score (comparison among epoxy-janthitrems),[2],significantly greater than that observed for any of the other epoxy-janthitrems
CC1(C)C=C2c3cc4[nH]c5c(c4cc3CC2C(C)(C)O1)CC1CC[C@@]2(O)C34O[C@H]3[C@H](O)C(C(C)(C)O)OC4CC[C@]2(C)[C@@]51C (stereo partly drawn) [epoxy-janthitriol],average diet consumption with increasing concentration,[1],decreased with increasing epoxy-janthitrem concentration
same,peak tremor score (comparison among epoxy-janthitrems),[2],lowest peak tremor scores
"CC(C)(O)C1OC2CC[C@@]3(C)[C@@](O)(CCC4Cc5c([nH]c6ccccc56)[C@@]43C)C2=CC1=O (stereo partly drawn) [paxilline, Paxilline]",time of tremor peak,"[5]; ip, paxilline 6 mg/kg",30 mins post-dosing
same,time to complete recovery,"[5]; ip, paxilline 6 mg/kg",≤ 6 hours post-dosing
